Laboratory results published in ChEMBL document CHEMBL1140306 (J Med Chem, 2005).

The molecules below were run against T1, Acetylcholinesterase (Homo sapiens, UniProt P22303) (assay: Inhibition of human AChE induced beta-amyloid aggregation in thioflavin T-based fluorometric assay). Conditions: concentration not given here.
Format: functional
Parameters: concentration or dose not given beside the values

T1 sequence (P22303 whole entry): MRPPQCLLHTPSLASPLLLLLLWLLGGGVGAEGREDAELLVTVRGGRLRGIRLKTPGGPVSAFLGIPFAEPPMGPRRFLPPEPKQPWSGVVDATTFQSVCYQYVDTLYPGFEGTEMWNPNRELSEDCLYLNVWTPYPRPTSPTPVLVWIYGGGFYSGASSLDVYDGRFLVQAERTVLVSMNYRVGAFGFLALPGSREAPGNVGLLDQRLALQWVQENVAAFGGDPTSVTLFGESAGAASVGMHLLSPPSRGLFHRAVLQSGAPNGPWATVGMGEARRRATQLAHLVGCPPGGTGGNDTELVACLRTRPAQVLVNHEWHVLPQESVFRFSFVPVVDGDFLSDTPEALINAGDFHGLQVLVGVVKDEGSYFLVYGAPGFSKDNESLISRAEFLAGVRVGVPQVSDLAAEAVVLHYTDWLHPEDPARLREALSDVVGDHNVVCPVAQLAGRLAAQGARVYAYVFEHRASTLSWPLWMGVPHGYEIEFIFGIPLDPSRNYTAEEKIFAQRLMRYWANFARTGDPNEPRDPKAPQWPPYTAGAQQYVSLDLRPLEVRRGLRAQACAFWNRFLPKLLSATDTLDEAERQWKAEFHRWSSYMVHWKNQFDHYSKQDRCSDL

SMILES	inhibition [%]
CNC(=O)Oc1cccc(CN(C)CCCOc2ccc3c(=O)c4ccccc4oc3c2)c1	< 10
CNC(=O)Oc1cccc(CN(C)CCCOc2ccc3c(c2)O/C(=C\c2ccc4ccccc4c2)C3=O)c1	35
CNC(=O)Oc1cccc(CN(C)CCCCCCCOc2ccc3c(c2)OC/C(=C\c2cc(OC)c(OC)c(OC)c2)C3=O)c1	45.3
CNC(=O)Oc1cccc(CN(C)CCCCCCCOc2ccc3c(c2)C/C(=C\c2cc(OC)c(OC)c(OC)c2)C3=O)c1	32.8
CNC(=O)Oc1ccc2c(c1)[C@]1(C)CCN(C)[C@@H]1N2C	30
CN(CCCCCCCOc1ccc2c(c1)O/C(=C\c1cccc3ccccc13)C2=O)Cc1cccc(O)c1	49.5
CNC(=O)Oc1cccc(CN(C)CCCCCCCOc2ccc3c(c2)O/C(=C\c2ccc(Cl)c(Cl)c2)C3=O)c1	49.1
CNC(=O)Oc1cccc(CN(C)CCCCCCCOc2ccc3c(c2)O/C(=C\c2ccccc2)C3=O)c1	43.3
CNC(=O)Oc1cccc(CN(C)CCCCCCCOc2ccc3c(c2)O/C(=C\c2cccc4ccccc24)C3=O)c1	66.7
CNC(=O)Oc1cccc(CN(C)CCCCCCCOc2ccc3c(c2)O/C(=C\c2c4ccccc4cc4ccccc24)C3=O)c1	65.3
CNC(=O)Oc1cccc(CN(C)CCCCCCCOc2ccc3c(=O)c4ccccc4oc3c2)c1	< 10
CNC(=O)Oc1cccc(CN(C)CCCCCCCOc2ccc3c(c2)O/C(=C\c2cc(Cl)cc(Cl)c2)C3=O)c1	47.6
CNC(=O)Oc1cccc(CN(C)CCCCCCCOc2ccc3c(c2)CC/C(=C\c2cc(OC)c(OC)c(OC)c2)C3=O)c1	33.3
CNC(=O)Oc1cccc(CN(C)CCCOc2ccc3c(c2)O/C(=C\c2cccc4ccccc24)C3=O)c1	37.2
CNC(=O)Oc1cccc(CN(C)CCCCCCCOc2ccc3c(c2)OCC3=O)c1	17.5
CNC(=O)Oc1cccc(CN(C)CCCCCCCOc2ccc3c(c2)O/C(=C\c2cc(OC)c(OC)c(OC)c2)C3=O)c1	41
CNC(=O)Oc1cccc(CN(C)CCCOc2ccc3c(c2)O/C(=C\c2cc(OC)c(OC)c(OC)c2)C3=O)c1	29.2

Each molecule was assayed against Cholinesterases; ACHE & BCHE (Homo sapiens) (UniProt P06276+P22303) (assay: Ratio of IC50 for human BuChE and AChE). Conditions: not given.
Format: protein assay

Sequence of Cholinesterases; ACHE & BCHE (Homo sapiens) (P06276 whole entry, looked up): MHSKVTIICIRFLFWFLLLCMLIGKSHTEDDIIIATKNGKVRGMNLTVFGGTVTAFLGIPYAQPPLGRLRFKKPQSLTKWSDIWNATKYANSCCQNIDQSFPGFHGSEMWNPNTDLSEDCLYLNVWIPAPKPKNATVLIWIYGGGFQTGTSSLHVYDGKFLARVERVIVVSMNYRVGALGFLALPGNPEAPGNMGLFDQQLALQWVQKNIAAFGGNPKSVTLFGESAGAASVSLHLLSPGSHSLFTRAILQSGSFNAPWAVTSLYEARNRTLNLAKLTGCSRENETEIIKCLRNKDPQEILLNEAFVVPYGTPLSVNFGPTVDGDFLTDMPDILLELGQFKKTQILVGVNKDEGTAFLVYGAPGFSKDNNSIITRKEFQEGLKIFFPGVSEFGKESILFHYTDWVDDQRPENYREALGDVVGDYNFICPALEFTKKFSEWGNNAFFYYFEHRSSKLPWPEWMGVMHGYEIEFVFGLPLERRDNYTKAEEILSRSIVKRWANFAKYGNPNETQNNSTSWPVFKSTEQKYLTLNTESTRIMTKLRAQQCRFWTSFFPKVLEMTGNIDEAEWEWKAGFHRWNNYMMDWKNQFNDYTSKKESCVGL
Sequence of Cholinesterases; ACHE & BCHE (Homo sapiens) (P22303 whole entry, looked up): as the sequence (P22303 whole entry) above

SMILES	Ratio
CNC(=O)Oc1cccc(CN(C)CCCOc2ccc3c(c2)O/C(=C\c2ccc4ccccc4c2)C3=O)c1	20.6
CNC(=O)Oc1cccc(CN(C)CCCCCCCOc2ccc3c(c2)OC/C(=C\c2cc(OC)c(OC)c(OC)c2)C3=O)c1	15.6
CNC(=O)Oc1cccc(CN(C)CCCCCCCOc2ccc3c(c2)C/C(=C\c2cc(OC)c(OC)c(OC)c2)C3=O)c1	45.2
CN(CCCCCCCOc1ccc2c(c1)O/C(=C\c1cccc3ccccc13)C2=O)Cc1cccc(O)c1	0.09
CNC(=O)Oc1cccc(CN(C)CCCCCCCOc2ccc3c(c2)O/C(=C\c2ccc(Cl)c(Cl)c2)C3=O)c1	11.8
CNC(=O)Oc1cccc(CN(C)CCCCCCCOc2ccc3c(c2)O/C(=C\c2ccccc2)C3=O)c1	29.7
CNC(=O)Oc1cccc(CN(C)CCCCCCCOc2ccc3c(c2)O/C(=C\c2cccc4ccccc24)C3=O)c1	14.5
CNC(=O)Oc1cccc(CN(C)CCCCCCCOc2ccc3c(c2)O/C(=C\c2c4ccccc4cc4ccccc24)C3=O)c1	9.6
CNC(=O)Oc1cccc(CN(C)CCCCCCCOc2ccc3c(=O)c4ccccc4oc3c2)c1	51.6
CNC(=O)Oc1cccc(CN(C)CCCCCCCOc2ccc3c(c2)O/C(=C\c2cc(Cl)cc(Cl)c2)C3=O)c1	2.91
CNC(=O)Oc1cccc(CN(C)CCCCCCCOc2ccc3c(c2)CC/C(=C\c2cc(OC)c(OC)c(OC)c2)C3=O)c1	17.1
CNC(=O)Oc1cccc(CN(C)CCCOc2ccc3c(c2)O/C(=C\c2cccc4ccccc24)C3=O)c1	6.45
CNC(=O)Oc1cccc(CN(C)CCCCCCCOc2ccc3c(c2)OCC3=O)c1	7.08
CNC(=O)Oc1cccc(CN(C)CCCCCCCOc2ccc3c(c2)O/C(=C\c2cc(OC)c(OC)c(OC)c2)C3=O)c1	261
CNC(=O)Oc1cccc(CN(C)CCCOc2ccc3c(c2)O/C(=C\c2cc(OC)c(OC)c(OC)c2)C3=O)c1	51.8

The molecules below were run against T1, Acetylcholinesterase (assay: Inhibition of recombinant human AChE). Conditions: not given.

SMILES	IC50 [nM]
CNC(=O)Oc1cccc(CN(C)CCCOc2ccc3c(c2)O/C(=C\c2ccc4ccccc4c2)C3=O)c1	3.41
CNC(=O)Oc1cccc(CN(C)CCCCCCCOc2ccc3c(c2)OC/C(=C\c2cc(OC)c(OC)c(OC)c2)C3=O)c1	9.81
CNC(=O)Oc1cccc(CN(C)CCCCCCCOc2ccc3c(c2)C/C(=C\c2cc(OC)c(OC)c(OC)c2)C3=O)c1	1.8
CNC(=O)Oc1cccc(CN(C)CCCCCCCOc2ccc3c(c2)O/C(=C\c2ccc(Cl)c(Cl)c2)C3=O)c1	8
CNC(=O)Oc1cccc(CN(C)CCCCCCCOc2ccc3c(c2)O/C(=C\c2ccccc2)C3=O)c1	1.95
CNC(=O)Oc1cccc(CN(C)CCCCCCCOc2ccc3c(c2)O/C(=C\c2cccc4ccccc24)C3=O)c1	2.76
CNC(=O)Oc1cccc(CN(C)CCCCCCCOc2ccc3c(c2)O/C(=C\c2c4ccccc4cc4ccccc24)C3=O)c1	79.1
CNC(=O)Oc1cccc(CN(C)CCCCCCCOc2ccc3c(c2)O/C(=C\c2cc(Cl)cc(Cl)c2)C3=O)c1	44.6
CNC(=O)Oc1cccc(CN(C)CCCCCCCOc2ccc3c(c2)CC/C(=C\c2cc(OC)c(OC)c(OC)c2)C3=O)c1	4.94
CNC(=O)Oc1cccc(CN(C)CCCOc2ccc3c(c2)O/C(=C\c2cccc4ccccc24)C3=O)c1	6.86
CNC(=O)Oc1cccc(CN(C)CCCCCCCOc2ccc3c(c2)O/C(=C\c2cc(OC)c(OC)c(OC)c2)C3=O)c1	0.52
CNC(=O)Oc1cccc(CN(C)CCCOc2ccc3c(c2)O/C(=C\c2cc(OC)c(OC)c(OC)c2)C3=O)c1	2.99

Each molecule was assayed against Cholinesterase (Homo sapiens, UniProt P06276) (assay: Inhibition of isolated human BuChE). Conditions: not given.
Sequence of Cholinesterase (P06276 whole entry): as the sequence (P06276 whole entry, looked up) above

SMILES	IC50 [nM]
CNC(=O)Oc1cccc(CN(C)CCCOc2ccc3c(c2)O/C(=C\c2ccc4ccccc4c2)C3=O)c1	70.3
CNC(=O)Oc1cccc(CN(C)CCCCCCCOc2ccc3c(c2)OC/C(=C\c2cc(OC)c(OC)c(OC)c2)C3=O)c1	153
CNC(=O)Oc1cccc(CN(C)CCCCCCCOc2ccc3c(c2)C/C(=C\c2cc(OC)c(OC)c(OC)c2)C3=O)c1	81.3
CNC(=O)Oc1cccc(CN(C)CCCCCCCOc2ccc3c(c2)O/C(=C\c2ccc(Cl)c(Cl)c2)C3=O)c1	94.6
CNC(=O)Oc1cccc(CN(C)CCCCCCCOc2ccc3c(c2)O/C(=C\c2ccccc2)C3=O)c1	57.9
CNC(=O)Oc1cccc(CN(C)CCCCCCCOc2ccc3c(c2)O/C(=C\c2cccc4ccccc24)C3=O)c1	40.2
CNC(=O)Oc1cccc(CN(C)CCCCCCCOc2ccc3c(c2)O/C(=C\c2c4ccccc4cc4ccccc24)C3=O)c1	761
CNC(=O)Oc1cccc(CN(C)CCCCCCCOc2ccc3c(c2)O/C(=C\c2cc(Cl)cc(Cl)c2)C3=O)c1	130
CNC(=O)Oc1cccc(CN(C)CCCCCCCOc2ccc3c(c2)CC/C(=C\c2cc(OC)c(OC)c(OC)c2)C3=O)c1	84.4
CNC(=O)Oc1cccc(CN(C)CCCOc2ccc3c(c2)O/C(=C\c2cccc4ccccc24)C3=O)c1	44.3
CNC(=O)Oc1cccc(CN(C)CCCCCCCOc2ccc3c(c2)OCC3=O)c1	11400
CNC(=O)Oc1cccc(CN(C)CCCCCCCOc2ccc3c(c2)O/C(=C\c2cc(OC)c(OC)c(OC)c2)C3=O)c1	136
CNC(=O)Oc1cccc(CN(C)CCCOc2ccc3c(c2)O/C(=C\c2cc(OC)c(OC)c(OC)c2)C3=O)c1	155
